Laboratory results reported in PubChem BioAssay AID330 (DTP/NCI, 2004).
“And” between values parts separate entries of the source, which are not always exact repeats. Identical values can stand only once. Toxic doses and inconclusive results are not listed. How the source made its calls: active means survival T/C of 150% or more; inactive means T/C below 125% in these data.

Tested on: P388 leukemia ip, CD2F1 mice, survival T/C
Assay: NCI In Vivo Anticancer Drug Screen. Data for tumor model P388 Leukemia (intraperitoneal) in CD2F1 (CDF1) mice
Settings: endpoint: median survival time, higher = longer survival
In short: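 Mice carrying the transplanted tumor received test compound or vehicle. Survival was recorded in each group, and the value is the treated-group measurement divided by that of the vehicle-treated control group.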

[1] = dose: 50.0 mg/kg/injection, schedule: Q01DX005 (ip), vehicle: Klucel (hydroxypropylcellulose) (HPC)
[2] = dose: 100.0 mg/kg/injection, schedule: Q01DX005 (ip), vehicle: Klucel (hydroxypropylcellulose) (HPC)

Measured: T/C

COc1cc(C2c3cc4c(cc3C(=O)C(C)C2C)OCO4)ccc1O (centres undefined)
inactive: dose: 25.0 mg/kg/injection, schedule: Q01DX005 (ip), vehicle: Klucel (hydroxypropylcellulose) (HPC) 98 % of control | [1] 98 % of control | [2] 102 % of control | dose: 150.0 mg/kg/injection, schedule: Q01DX005 (ip), vehicle: Klucel (hydroxypropylcellulose) (HPC) 86 % of control

Nc1ccc(S(=O)(=O)n2c(=O)oc3cc(Br)ccc32)cc1
inactive: dose: 25.0 mg/kg/injection, schedule: Q04DX002 (ip), vehicle: Klucel (hydroxypropylcellulose) (HPC) 99 % of control | dose: 50.0 mg/kg/injection, schedule: Q04DX002 (ip), vehicle: Klucel (hydroxypropylcellulose) (HPC) 99 % of control | dose: 100.0 mg/kg/injection, schedule: Q04DX002 (ip), vehicle: Klucel (hydroxypropylcellulose) (HPC) 100 % of control and 93 % of control

O=C(/C=C/c1ccc(Cl)cc1Cl)c1ccc(Cl)cc1
inactive: dose: 100.0 mg/kg/injection, schedule: Q04DX003 (ip), vehicle: saline with Tween-80 100 % of control | dose: 200.0 mg/kg/injection, schedule: Q04DX003 (ip), vehicle: saline with Tween-80 95 % of control | dose: 400.0 mg/kg/injection, schedule: Q04DX003 (ip), vehicle: saline with Tween-80 90 % of control

COc1ccc2cc1Oc1ccc(cc1)C[C@H]1c3cc(c(OC)cc3CCN1C)Oc1c(OC)c(OC)cc3c1[C@H](C2)N(C)CC3
inactive: dose: 12.5 mg/kg/injection, schedule: Q01DX009 (ip), vehicle: other 94 % of control and 95 % of control | dose: 25.0 mg/kg/injection, schedule: Q01DX009 (ip), vehicle: other 100 % of control and 97 % of control | dose: 25.0 mg/kg/injection, schedule: Q04DX003 (ip), vehicle: suspension in saline 98 % of control | dose: 50.0 mg/kg/injection, schedule: Q01DX009 (ip), vehicle: other 100 % of control and 97 % of control | dose: 50.0 mg/kg/injection, schedule: Q04DX003 (ip), vehicle: suspension in saline 88 % of control | dose: 100.0 mg/kg/injection, schedule: Q01DX009 (ip), vehicle: other 103 % of control | dose: 100.0 mg/kg/injection, schedule: Q04DX003 (ip), vehicle: suspension in saline 89 % of control | dose: 200.0 mg/kg/injection, schedule: Q04DX003 (ip), vehicle: suspension in saline 87 % of control

CC1CCC(C(C)C)C(NC(=O)c2ccncc2)C1 (centres undefined)
inactive: [1] 100 % of control | [2] 101 % of control | dose: 200.0 mg/kg/injection, schedule: Q01DX005 (ip), vehicle: Klucel (hydroxypropylcellulose) (HPC) 105 % of control

CCNC(=O)OCCN(CCOC(=O)NCC)CCc1ccccc1
inactive: dose: 60.0 mg/kg/injection, schedule: Q01DX005 (ip), vehicle: saline 110 % of control | dose: 120.0 mg/kg/injection, schedule: Q01DX005 (ip), vehicle: saline 117 % of control | dose: 240.0 mg/kg/injection, schedule: Q01DX005 (ip), vehicle: saline 99 % of control

COCC12CCC(OC)C34C5CC6(O)C(OC)CC(OC(C)=O)(C5C6OC(=O)c5ccccc5)C(C(OC)C13)C4N(C)C2 (centres undefined)
inactive: dose: 0.31 mg/kg/injection, schedule: Q01DX009 (ip), vehicle: saline 106 % of control | dose: 0.62 mg/kg/injection, schedule: Q01DX009 (ip), vehicle: saline 101 % of control | dose: 1.25 mg/kg/injection, schedule: Q01DX009 (ip), vehicle: saline 110 % of control | dose: 2.5 mg/kg/injection, schedule: Q01DX009 (ip), vehicle: saline 102 % of control | dose: 5.0 mg/kg/injection, schedule: Q01DX009 (ip), vehicle: saline 108 % of control
